From publication PMC4060991, “The Human Orphan Nuclear Receptor Tailless (TLX, NR2E1) Is Druggable” (PLoS ONE, 2014)

Tests used:
ERβ LBD = ERβ LBD (Homo sapiens, UniProt Q92731); assay: DSF on purified ERβ LBD; details: compound 500 µM; unliganded Tm ∼51°C
Protocol: Protein stability was assessed with DSF in absence or presence of test compounds in a LightCycler 480 II qRT-PCR Detection System (Roche) in 384-well format. Sypro-Orange dye (Life Technologies) was used to monitor fluorescence, with filters for fluorescence excitation at 465 nm and for fluorescence emission at 610 nm. […] Tested sample mixtures were heated from 25°C to 96°C at a rate of 0.05°C/sec with 11 acquisitions per °C. Each compound was tested in duplicates. The melting temperature (Tm) for each sample was deduced by the ThermoQ Analytical software (HMRI) from the first derivative of the corresponding denaturation curve generated by the LightCycler 480 software. The same protocol was applied to investigate the stability of purified ERβ and LXRβ LBDs in presence or absence of the compounds. The optimal final concentrations for these experiments were 0.02 mg/mL for ERβ LBD and 0.20 mg/mL for LXRβ LBD. All DSF-based analyses were performed using freshly purified protein.

TLX LBD = TLX LBD (Homo sapiens, UniProt Q9Y466); assay: Differential scanning fluorimetry (DSF) on purified TLX LBD;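 note: thermal unfolding followed by Sypro-Orange fluorescence (excitation 465 nm, emission 610 nm) in 384-well plates, Tm taken from the first derivative of the denaturation curve, duplicate samples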; format: binding; design: cDNA fragments encoding human TLX LBD (a.a. 187–385) were cloned; His6 followed by TEV protease cleavage site (N); made in house; host or cells: E. coli BL21 (DE3) star; details: compound 500 µM
Sequence of TLX LBD (Q9Y466 187-385): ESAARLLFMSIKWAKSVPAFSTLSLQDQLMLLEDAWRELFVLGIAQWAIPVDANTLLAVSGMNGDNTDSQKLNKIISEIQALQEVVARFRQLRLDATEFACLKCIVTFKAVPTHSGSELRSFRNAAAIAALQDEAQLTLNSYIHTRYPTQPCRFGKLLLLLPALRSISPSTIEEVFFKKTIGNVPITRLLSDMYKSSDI
Protocol: Protein stability was assessed with DSF in absence or presence of test compounds in a LightCycler 480 II qRT-PCR Detection System (Roche) in 384-well format. Sypro-Orange dye (Life Technologies) was used to monitor fluorescence, with filters for fluorescence excitation at 465 nm and for fluorescence emission at 610 nm. […] Each compound was tested in duplicates. The melting temperature (Tm) for each sample was deduced by the ThermoQ Analytical software (HMRI) from the first derivative of the corresponding denaturation curve generated by the LightCycler 480 software. […] All DSF-based analyses were performed using freshly purified protein.

Sequence of ERβ LBD (Q92731 261-530): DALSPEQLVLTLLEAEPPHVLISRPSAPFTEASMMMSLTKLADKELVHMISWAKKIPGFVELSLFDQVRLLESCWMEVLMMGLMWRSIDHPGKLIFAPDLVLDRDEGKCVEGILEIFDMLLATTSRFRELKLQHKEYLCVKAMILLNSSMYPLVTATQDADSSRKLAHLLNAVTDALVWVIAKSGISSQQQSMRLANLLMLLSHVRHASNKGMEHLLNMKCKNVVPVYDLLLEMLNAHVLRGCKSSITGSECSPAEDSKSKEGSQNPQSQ

melting temperature shift of ERβ LBD (ERβ LBD)	SMILES	hit in DSF screen (able to bind TLX LBD, Tm shift 0.9°C or more), Table S1 (TLX LBD)
shifted upward	C[C@]12CC[C@@H]3c4ccc(O)cc4CC[C@H]3[C@@H]1CC[C@@H]2O [E2, estradiol]	
	Cc1cc(N)c2ccccc2[n+]1CCCCCCCCCC[n+]1c(C)cc(N)c2ccccc21.[Cl-].[Cl-] [1-[10-(4-amino-2-methylquinolin-1-ium-1-yl)decyl]-2-methylquinolin-1-ium-4-amine chloride]	Hits from DSF
	O=C([O][Hg][CH2]C1COC([CH2][Hg][O]C(=O)c2ccccc2)CO1)c1ccccc1 (stereo not shown) [benzoyloxy-[[5-(benzoyloxymercuriomethyl)-1,4-dioxan-2-yl]methyl]mercury]	Hits from DSF
	CC[C@H](CO)Nc1nc(NCc2ccccc2)c2ncn(C(C)C)c2n1 [Roscovitine (CYC202), Roscovitine]	Hits from DSF
